{"source": "patent US20180291468A1", "about": "“MARKERS OF TUMOR CELL RESPONSE TO ANTI-CANCER THERAPY” (REGENERON PHARMACEUTICALS, INC., priority 2013, published 2018)", "assay_type_in_all_cases": "in vivo", "key": {"A549 lung cancer tumor": {"test_system": "A549 lung cancer tumor", "experiment": "miRNA marker levels after A549 lung cancer tumor implantation and anti-tumor drug", "method": "(§1) Plasma samples (50 uL) were stored at −80° C. after receiving them. The samples were thawed on ice, and total RNA was isolated with the miRCURY RNA Isolation Kit for Biofluids (Exiqon) according to the supplied protocol (1 uL of Exiqon spike-in UniRT RNA mix was added to each sample before RNA isolation). RNA was eluted into 50 uL nuclease-free water, and either processed directly for cDNA synthesis of stored at −80° C. until that time. RNA from each sample was used to create cDNA in 40 uL reaction volume with the Universal cDNA Synthesis Kit II (Exiqon) according to the supplied protocol. RNA concentration for plasma samples is not quantitated; 8 uL each RNA sample is used without adjusting concentration. The 40 uL of cDNA per sample was then used to set-up qPCR directly or stored at −20° C. until use. The 40 uL cDNA was diluted into 4 mL of nuclease-free water, and then mixed with 4 mL 2X ExiLENT SYBR Green master mix (Exiqon) to create 8 mL qPCR mix, according to protocol supplied with miRNome Panels (Exiqon). The 8 ml master mix was then pipetted into the two 384-well plates (Exiqon microRNA Ready-to-Use PCR, Human panel I+II, V3.M), 10 ul per well according to the supplied protocol. The plates were briefly centrifuged, sealed, and run on the ABI Viia7 real time PCR thermocycler, using the PCR template program supplied by Exiqon. Results were exported as text files and then imported into the GenEx software (Exiqon) for analysis. Data pre-processing and analysis steps were performed according to the recommendations of the Exiqon Data Analysis Guide. Briefly, biological replicate were grouped, outliers were automatically detected and removed, Ct values higher than 37 were considered background and removed, missing data was filled by the GenEx software with an imputed value based on group mean. Cts for each sample were normalized to the global mean of all expressed miRNAs with a Ct<34."}, "[1]": {"test_system": "PC3M prostate cancer tumor", "experiment": "miRNA marker levels after PC3M prostate cancer tumor implantation and anti-tumor drug", "method": "as §1"}, "[2]": {"test_system": "COLO 205 human colorectal cancer cells", "experiment": "Drug efficacy in COLO 205 tumor-bearing mice (tumor burden)", "method": "Immune compromised mice were injected with COLO 205 human colorectal cancer cells and tumors were allowed to develop, after which the mice were treated with either irinotecan or vehicle for 14 days. In a second control group, normal mice maintained in parallel but not bearing tumors were treated with either irinotecan or vehicle. […] During the course of drug treatment, blood plasma samples were taken from all mice at regular intervals from 3 to 14 days. RNA was prepared from the plasma samples and analyzed for miRNA content by a panel of quantitative PCR assays for approximately 700 miRNAs. The relative quantities of each miRNA assayed were normalized to the global mean in each sample and then compared between the paired groups: drug versus vehicle treatment in tumor-bearing mice; drug versus vehicle in tumor-free mice; and tumor bearing versus tumor-free mice. […]\nWe looked for miRNAs whose pattern of detection matched that in the mice treated with drug for 14 days. The pattern of quantification for these miRNAs—higher or lower in the drug treated mice compared to the vehicle treated controls—matched miRNAs from the 14 day time point. […] These 14 miRNAs form a signature of plasma miRNA content that correlates with drug efficacy late in the course of drug treatment and predicts efficacy early in the drug treatment regimen before any effects of irinotecan on tumor burden could be detected."}, "COLO 205 tumor": {"test_system": "COLO 205 tumor", "experiment": "Plasma miRNA profiling by qPCR panel in COLO 205 tumor-bearing mice, drug versus vehicle", "details": "for miRNAs different upon drug treatment: Higher: plasma, relative to a vehicle-treated control, 3 days, matching 14 day pattern", "method": "as §1\nImmune compromised mice were injected with COLO 205 human colorectal cancer cells and tumors were allowed to develop, after which the mice were treated with either irinotecan or vehicle for 14 days. In a second control group, normal mice maintained in parallel but not bearing tumors were treated with either irinotecan or vehicle. […] During the course of drug treatment, blood plasma samples were taken from all mice at regular intervals from 3 to 14 days. RNA was prepared from the plasma samples and analyzed for miRNA content by a panel of quantitative PCR assays for approximately 700 miRNAs. The relative quantities of each miRNA assayed were normalized to the global mean in each sample and then compared between the paired groups: drug versus vehicle treatment in tumor-bearing mice; drug versus vehicle in tumor-free mice; and tumor bearing versus tumor-free mice. Samples were taken from six replicate mice for each time point in each of the categories.\nTo eliminate those miRNA differences that were the result of drug treatment alone, we examined the miRNA profiles in the irinotecan treated normal, tumor-free mice compared with the same type of mice treated with vehicle.\nWe looked for miRNAs whose pattern of detection matched that in the mice treated with drug for 14 days. The pattern of quantification for these miRNAs—higher or lower in the drug treated mice compared to the vehicle treated controls—matched miRNAs from the 14 day time point. We found three miRNAs, miR-30d-3p, miR-483-5p, and miR-708-3p, that were elevated in the drug treated tumor bearing mice compared with the vehicle controls and 11 miRNAs, miR-21-3p, miR-101-5p, miR-122-3p, miR-197-3p, miR-429, miR-501-3p, miR-509-3p, miR-598, miR-206, miR-885-5p, and miR-1972, that were lower in the drug treated mice compared with the controls. These 14 miRNAs form a signature of plasma miRNA content that correlates with drug efficacy late in the course of drug treatment and predicts efficacy early in the drug treatment regimen before any effects of irinotecan on tumor burden could be detected. […]"}, "[3]": {"details": "three days following administration"}, "[4]": {"details": "three days, matched 14 day time point"}}, "data": [{"smiles": "N.N.[Cl][Pt][Cl]", "note": "[Cisplatin]", "values": [{"measurement": "particular miRNA marker levels upon administration to lung tumors (FIG. 2)", "setting": "A549 lung cancer tumor; lung tumors (A549)", "result": "decrease"}, {"measurement": "level of certain miRNA markers that decrease upon tumor implantation (FIG. 3)", "setting": "A549 lung cancer tumor; [3]", "result": "increase"}, {"measurement": "level of certain miRNA markers that increase upon tumor implantation (FIG. 1)", "setting": "A549 lung cancer tumor; [3]", "result": "decrease"}, {"measurement": "level of miR-16-5p, miR-1208, miR-24-3p and miR-588 (FIG. 4)", "setting": "A549 lung cancer tumor; [3]", "result": "increase"}]}, {"smiles": "CC(=O)O[C@@]12CO[C@@H]1C[C@H](O)[C@@]1(C)C(=O)[C@H](O)C3=C(C)[C@@H](OC(=O)[C@H](O)[C@@H](NC(=O)OC(C)(C)C)c4ccccc4)C[C@@](O)([C@@H](OC(=O)c4ccccc4)[C@H]21)C3(C)C", "note": "[Docetaxel]", "values": [{"measurement": "level of certain miRNA markers that decrease upon tumor implantation (FIG. 7)", "setting": "[1]; following administration", "result": "increase"}, {"measurement": "level of certain miRNA markers that increase upon tumor implantation (FIG. 5)", "setting": "[1]; following administration", "result": "decrease"}, {"measurement": "level of miR-190, miR-153 and miR-92a-1 (FIG. 6)", "setting": "[1]; following administration", "result": "decrease"}, {"measurement": "level of miR-634 and miR-647 (FIG. 8)", "setting": "[1]; following administration", "result": "increase"}, {"measurement": "particular miRNA marker levels upon administration to prostate tumors (FIG. 2)", "setting": "[1]; prostate tumors (PC3M)", "result": "decrease"}]}, {"smiles": "CCc1c2c(nc3ccc(OC(=O)N4CCC(N5CCCCC5)CC4)cc13)-c1cc3c(c(=O)n1C2)COC(=O)[C@]3(O)CC", "note": "[irinotecan]", "values": [{"measurement": "tumor burden in drug treated mice versus vehicle treated control group", "setting": "[2]; after 14 days of drug treatment", "result": "significantly lower tumor burden"}, {"measurement": "difference in tumor burden, drug versus vehicle", "setting": "[2]; treated for only three days", "result": "no significant difference in tumor burden"}, {"measurement": "detection of the 11 miRNAs in plasma of drug treated mice", "setting": "COLO 205 tumor; detectable in the vehicle treated mice", "result": "undetectable"}, {"measurement": "miRNAs different upon drug treatment: Higher", "setting": "COLO 205 tumor; miR-483-5p", "result": "miR-483-5p"}, {"measurement": "miRNAs different upon drug treatment: Higher", "setting": "COLO 205 tumor; miR-708-3p", "result": "miR-708-3p"}, {"measurement": "miRNAs different upon drug treatment: Higher", "setting": "COLO 205 tumor; miR-30d-3p", "result": "miR-30d-3p"}, {"measurement": "plasma miR-21-3p, miR-101-5p, miR-122-3p, miR-197-3p, miR-429, miR-501-3p, miR-509-3p, miR-598, miR-206, miR-885-5p and miR-1972 in drug treated mice compared with controls", "setting": "COLO 205 tumor; [4]", "result": "lower"}, {"measurement": "plasma miR-30d-3p, miR-483-5p and miR-708-3p in drug treated tumor bearing mice compared with vehicle controls", "setting": "COLO 205 tumor; [4]", "result": "elevated"}, {"measurement": "detection of miR-30d-3p and miR-708-3p in plasma of treated tumor-bearing mice", "setting": "COLO 205 tumor; tumor-bearing mice", "result": "went from undetected to detected"}, {"measurement": "plasma miR-483-5p in treated tumor-bearing mice", "setting": "COLO 205 tumor; tumor-bearing mice", "result": "increased"}]}]}
